The results in this text go back to patent US10370412B2, “Beta-hairpin peptidomimetics” (Polyphor AG, priority 2013, dated 2019).

Molecules are shown by their SMILES. Where a SMILES comes first, the peptide text is derived from it. [ ]: non-standard residue; d: D form. Dap(CONH2) = NC(=O)NC[C@H](N)C(=O)O; Cha = N[C@@H](CC1CCCCC1)C(=O)O; Chg = N[C@H](C(=O)O)C1CCCCC1; Tle = CC(C)(C)[C@H](N)C(=O)O; dDab = NCC[C@@H](N)C(=O)O; hSer = N[C@@H](CCO)C(=O)O; Orn = NCCC[C@H](N)C(=O)O; Api = NC1(C(=O)O)CCNCC1; Dab = NCC[C@H](N)C(=O)O

The data set relates to human red blood cells (hRBC). In kind it is cell-based. To be noted: red cells of human, 1 h. As to the method: The peptides were tested for their hemolytic activity against human red blood cells (hRBC). Fresh hRBC were washed three times with phosphate buffered saline (PBS) and centrifuged for 10 min at 2000×g. Compounds (100 μg/ml) were incubated with 20% hRBC (v/v) for 1 h at 37° C. and shaking at 300 rpm. The final erythrocyte concentration was approximately 0.9×10^9 cells/ml. A value of 0% and 100% cell lyses, respectively, was determined by incubation of hRBC in the presence of PBS containing 0.001% acetic acid and 2.5% Triton X-100 in H2O, respectively. The samples were centrifuged, the supernatants were 8-fold diluted in PBS buffer and the optical densities (OD) were measured at 540 nm. The 100% lyses value (OD540H2O) gave an OD540 of approximately 0.5-1.0. Percent hemolysis was calculated as follows: (OD540peptide/OD540H2O)×100%.

As to `COc1ccc(C[C@@H]2NC(=O)[C@H](Cc3c[nH]cn3)NC(=O)[C@H](Cc3c[nH]c4ccccc34)NC(=O)[C@@H]3CCCN3C(=O)[C@H]3CCCN3C(=O)[C@H](CO)NC(=O)[C@H](C)NC(=O)[C@H](C(C)(C)C)NC(=O)[C@H](CCO)NC(=O)[C@H](Cc3c[nH]c4ccccc34)NC(=O)[C@H](CCN)NC(=O)[C@@H](CCN)NC(=O)[C@H](CCCN)NC(=O)[C@H](CCN)NC2=O)cc1` [Ex. 16, cyclo(-Trp-His-Tyr(Me)-Dab-Orn-^DDab-Dab-Trp-Hse-tBuGly-Ala-Ser-^DPro-Pro-)] (cyclo(WHY(Me)[Dab][Orn][dDab][Dab]W[hSer][Tle]AS[dP]P)), the “Hemolysis at 100 μg/ml” value amounted to 1%.
On to `CC(C)C[C@@H]1NC(=O)[C@@H]2CCCN2C(=O)[C@H]2CCCN2C(=O)[C@H](CO)NC(=O)[C@H](C)NC(=O)[C@H](CC2CCCCC2)NC(=O)[C@H](CCN)NC(=O)[C@H](Cc2c[nH]c3ccccc23)NC(=O)[C@H](CCN)NC(=O)[C@@H](CCN)NC(=O)[C@H](CCCN)NC(=O)[C@H](CCN)NC(=O)[C@H](Cc2ccc(O)cc2)NC(=O)[C@H](Cc2c[nH]c3ccccc23)NC1=O` [compound 26, cyclo(-Leu-Trp-Tyr-Dab-Orn-^DDab-Dab-Trp-Dab-Cha-Ala-Ser-^DPro-Pro-)] (cyclo(LWY[Dab][Orn][dDab][Dab]W[Dab][Cha]AS[dP]P)), for which the “Hemolysis at 100 μg/ml” value is reported as 1%.
The value for `CC(C)C[C@@H]1NC(=O)[C@@H]2CCCN2C(=O)[C@H]2CCCN2C(=O)[C@H](CO)NC(=O)[C@H](CO)NC(=O)[C@H](CC2CCCCC2)NC(=O)[C@H](CCN)NC(=O)[C@H](Cc2c[nH]c3ccccc23)NC(=O)[C@H](CCN)NC(=O)[C@@H](CCN)NC(=O)[C@H](CCCN)NC(=O)[C@H](CCN)NC(=O)[C@H](Cc2ccc(O)cc2)NC(=O)[C@H](Cc2c[nH]c3ccccc23)NC1=O` [compound 32, cyclo(-Leu-Trp-Tyr-Dab-Orn-^DDab-Dab-Trp-Dab-Cha-Ser-Ser-^DPro-Pro-)] (cyclo(LWY[Dab][Orn][dDab][Dab]W[Dab][Cha]SS[dP]P)) was 3%; that for `CC(C)C[C@@H]1NC(=O)[C@@H]2CCCN2C(=O)[C@H]2CCCN2C(=O)[C@H](CO)NC(=O)[C@H](C)NC(=O)[C@H](C(C)(C)C)NC(=O)[C@H](CCN)NC(=O)[C@H](Cc2c[nH]c3ccccc23)NC(=O)[C@H](CCN)NC(=O)[C@@H](CCN)NC(=O)[C@H](CCCN)NC(=O)[C@H](CCN)NC(=O)[C@H](Cc2c[nH]c3ccccc23)NC(=O)[C@H](Cc2c[nH]cn2)NC1=O` [compound 24, cyclo(-Leu-His-Trp-Dab-Orn-^DDab-Dab-Trp-Dab-tBuGly-Ala-Ser-^DPro-Pro-)] (cyclo(LHW[Dab][Orn][dDab][Dab]W[Dab][Tle]AS[dP]P)) was 1%; that for `CC(C)C[C@@H]1NC(=O)[C@@H]2CCCN2C(=O)[C@H]2CCCN2C(=O)[C@H](CO)NC(=O)[C@H](CC(N)=O)NC(=O)[C@H](C(C)(C)C)NC(=O)[C@H](CCN)NC(=O)[C@H](Cc2c[nH]c3ccccc23)NC(=O)[C@H](CCN)NC(=O)[C@@H](CCN)NC(=O)[C@H](CCCN)NC(=O)[C@H](CCN)NC(=O)[C@H](Cc2ccc(O)cc2)NC(=O)[C@H](Cc2ccc(O)cc2)NC1=O` [compound 33, cyclo(-Leu-Tyr-Tyr-Dab-Orn-^DDab-Dab-Trp-Dab-tBuGly-Asn-Ser-^DPro-Pro-)] (cyclo(LYY[Dab][Orn][dDab][Dab]W[Dab][Tle]NS[dP]P)) was 5%.
The value for `C[C@@H]1NC(=O)[C@H](CC2CCCCC2)NC(=O)[C@H](CCN)NC(=O)[C@H](Cc2c[nH]c3ccccc23)NC(=O)[C@H](CCN)NC(=O)[C@@H](CCN)NC(=O)[C@H](CCCN)NC(=O)[C@H](CCN)NC(=O)[C@H](C(C)(C)C)NC(=O)[C@H](Cc2c[nH]c3ccccc23)NC(=O)[C@H](Cc2c[nH]c3ccccc23)NC(=O)[C@@H]2CCCN2C(=O)[C@H]2CCCN2C(=O)[C@H](CO)NC1=O` [compound 12, cyclo(-Trp-Trp-tBuGly-Dab-Orn-^DDab-Dab-Trp-Dab-Cha-Ala-Ser-^DPro-Pro-)] (cyclo(WW[Tle][Dab][Orn][dDab][Dab]W[Dab][Cha]AS[dP]P)) was 3%.
Take `CC[C@H](C)[C@@H]1NC(=O)[C@@H]2CCCN2C(=O)[C@H]2CCCN2C(=O)[C@H](CO)NC(=O)[C@H](C)NC(=O)[C@H](CC2CCCCC2)NC(=O)[C@H](CCN)NC(=O)[C@H](Cc2c[nH]c3ccccc23)NC(=O)[C@H](CCN)NC(=O)[C@@H](CCN)NC(=O)[C@H](CCCCN)NC(=O)[C@H](CCN)NC(=O)[C@H](C(C)(C)C)NC(=O)[C@H](Cc2c[nH]c3ccccc23)NC1=O` [compound 35, cyclo(-Ile-Trp-tBuGly-Dab-Lys-^DDab-Dab-Trp-Dab-Cha-Ala-Ser-^DPro-Pro-)] (cyclo(IW[Tle][Dab]K[dDab][Dab]W[Dab][Cha]AS[dP]P)): the “Hemolysis at 100 μg/ml” value is recorded as 1%.
The value for `C[C@@H]1NC(=O)[C@H](C(C)(C)C)NC(=O)[C@H](CCN)NC(=O)[C@H](Cc2c[nH]c3ccccc23)NC(=O)[C@H](CCN)NC(=O)[C@H](CCN)NC(=O)[C@H](CCCN)NC(=O)[C@H](CCN)NC(=O)[C@H](Cc2ccc(O)cc2)NC(=O)[C@H](Cc2c[nH]cn2)NC(=O)[C@H](Cc2c[nH]c3ccccc23)NC(=O)[C@@H]2CCCN2C(=O)[C@H]2CCCN2C(=O)[C@H](CO)NC1=O` [compound 18, cyclo(-Trp-His-Tyr-Dab-Orn-Dab-Dab-Trp-Dab-tBuGly-Ala-Ser-^DPro-Pro-)] (cyclo(WHY[Dab][Orn][Dab][Dab]W[Dab][Tle]AS[dP]P)) was 0%.
The value for `CC(C)C[C@@H]1NC(=O)[C@@H]2CCCN2C(=O)[C@H]2CCCN2C(=O)[C@H](CO)NC(=O)[C@H](C)NC(=O)[C@H](C(C)(C)C)NC(=O)[C@H](CCN)NC(=O)[C@H](Cc2c[nH]c3ccccc23)NC(=O)[C@H](CCN)NC(=O)[C@@H](CCN)NC(=O)[C@H](CCCN)NC(=O)[C@H](CCN)NC(=O)[C@H](Cc2ccc(O)cc2)NC(=O)[C@H](Cc2c[nH]cn2)NC1=O` [compound 5, cyclo(-Leu-His-Tyr-Dab-Orn-^DDab-Dab-Trp-Dab-tBuGly-Ala-Ser-^DPro-Pro-)] (cyclo(LHY[Dab][Orn][dDab][Dab]W[Dab][Tle]AS[dP]P)) was 0%; that for `CC[C@H](C)[C@@H]1NC(=O)[C@@H]2CCCN2C(=O)[C@H]2CCCN2C(=O)[C@H](CO)NC(=O)[C@H](C)NC(=O)[C@H](C(C)(C)C)NC(=O)[C@H](CCN)NC(=O)[C@H](Cc2c[nH]c3ccccc23)NC(=O)[C@H](CCN)NC(=O)[C@@H](CCN)NC(=O)[C@H](CCCN)NC(=O)[C@H](CCN)NC(=O)[C@H](Cc2ccc(O)cc2)NC(=O)[C@H](Cc2c[nH]cn2)NC1=O` [compound 20, cyclo(-Ile-His-Tyr-Dab-Orn-^DDab-Dab-Trp-Dab-tBuGly-Ala-Ser-^DPro-Pro-)] (cyclo(IHY[Dab][Orn][dDab][Dab]W[Dab][Tle]AS[dP]P)) was 0%; that for `C[C@@H]1NC(=O)[C@H](C(C)(C)C)NC(=O)[C@H](CCN)NC(=O)[C@H](Cc2c[nH]c3ccccc23)NC(=O)[C@H](CCN)NC(=O)[C@H](CCN)NC(=O)[C@H](CCCN)NC(=O)[C@H](CCN)NC(=O)[C@H](CC2CCCCC2)NC(=O)[C@H](Cc2c[nH]cn2)NC(=O)[C@H](Cc2c[nH]c3ccccc23)NC(=O)[C@@H]2CCCN2C(=O)[C@H]2CCCN2C(=O)[C@H](CO)NC1=O` [compound 19, cyclo(-Trp-His-Cha-Dab-Orn-Dab-Dab-Trp-Dab-tBuGly-Ala-Ser-^DPro-Pro-)] (cyclo(WH[Cha][Dab][Orn][Dab][Dab]W[Dab][Tle]AS[dP]P)) was 0%.
The value for `CC(C)C[C@@H]1NC(=O)[C@@H]2CCCN2C(=O)[C@H]2CCCN2C(=O)[C@H](CO)NC(=O)[C@H](CNC(N)=O)NC(=O)[C@H](C(C)(C)C)NC(=O)[C@H](CCN)NC(=O)[C@H](Cc2c[nH]c3ccccc23)NC(=O)[C@H](CCN)NC(=O)C2(CCNCC2)NC(=O)[C@H](CCCN)NC(=O)[C@H](CCN)NC(=O)[C@H](CC2CCCCC2)NC(=O)[C@H](Cc2c[nH]cn2)NC1=O` [compound 6, cyclo(-Leu-His-Cha-Dab-Orn-Pip-Dab-Trp-Dab-tBuGly-Alb-Ser-^DPro-Pro-)] (cyclo(LH[Cha][Dab][Orn][Api][Dab]W[Dab][Tle][Dap(CONH2)]S[dP]P)) was 3%; that for `CC(C)[C@@H]1NC(=O)[C@@H]2CCCN2C(=O)[C@H]2CCCN2C(=O)[C@H](CO)NC(=O)[C@H](C)NC(=O)[C@H](C(C)(C)C)NC(=O)[C@H](CCN)NC(=O)[C@H](Cc2c[nH]c3ccccc23)NC(=O)[C@H](CCN)NC(=O)[C@@H](CCN)NC(=O)[C@H](CCCN)NC(=O)[C@H](CCN)NC(=O)[C@H](Cc2ccc(O)cc2)NC(=O)[C@H](Cc2c[nH]cn2)NC1=O` [compound 7, cyclo(-Val-His-Tyr-Dab-Orn-^DDab-Dab-Trp-Dab-tBuGly-Ala-Ser-^DPro-Pro-)] (cyclo(VHY[Dab][Orn][dDab][Dab]W[Dab][Tle]AS[dP]P)) was 1%; that for `CC(C)C[C@@H]1NC(=O)[C@@H]2CCCN2C(=O)[C@H]2CCCN2C(=O)[C@H](CO)NC(=O)[C@H](C)NC(=O)[C@H](C2CCCCC2)NC(=O)[C@H](CCN)NC(=O)[C@H](Cc2c[nH]c3ccccc23)NC(=O)[C@H](CCN)NC(=O)[C@H](CCN)NC(=O)[C@H](CCCN)NC(=O)[C@H](CCN)NC(=O)[C@H](Cc2ccc(O)cc2)NC(=O)[C@H](Cc2c[nH]cn2)NC1=O` [compound 22, cyclo(-Leu-His-Tyr-Dab-Orn-Dab-Dab-Trp-Dab-Chg-Ala-Ser-^DPro-Pro-)] (cyclo(LHY[Dab][Orn][Dab][Dab]W[Dab][Chg]AS[dP]P)) was 0%.
